According to patent US12577217B2, “15-PGDH inhibitor” (KYORIN Pharmaceutical Co., Ltd., priority 2019, dated 2026):

Target: T1, recombinant human 15-PGDH (Homo sapiens, UniProt P15428)
T1 construct: purchased R&D Systems
T1 sequence (P15428 1-266): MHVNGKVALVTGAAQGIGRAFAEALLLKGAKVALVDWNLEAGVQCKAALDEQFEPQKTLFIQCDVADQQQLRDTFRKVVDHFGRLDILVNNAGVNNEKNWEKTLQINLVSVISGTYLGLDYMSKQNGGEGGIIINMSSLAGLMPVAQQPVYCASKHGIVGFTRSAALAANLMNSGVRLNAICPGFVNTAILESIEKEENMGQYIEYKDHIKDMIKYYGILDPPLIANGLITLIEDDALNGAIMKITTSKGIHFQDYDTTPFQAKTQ
Assay: 15-PGDH enzyme inhibition test
Assay type: biochemical
Conditions: 4 nM recombinant human 15-PGDH, 30 μM PGE2, 1 mM NAD+, 60 minutes after starting the reaction; read-out: IC50 Value
In short: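 4 nM recombinant human enzyme pre-incubated with compound 12 min at room temperature in 50 mM Tris-HCl pH 8.0 with 0.01% Tween 20 and 0.01% bovine gamma globulin. Reaction started with 30 μM PGE2 and 1 mM NAD+, read after 60 min by fluorescence (ex 340/em 440 nm). IC50 from concentration-response curve.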

Compound	IC50
CCn1nc2cc(N3CCOc4cc(C(=O)N5CCN(C)C(=O)C5)cnc43)ccn2c1=O [Example 8-221]	> 100 nM
COC(=O)Cn1nc2cc(N3CCOc4cc(C(=O)N5CCCCC5)cnc43)ccn2c1=O [Example 1-40]	< 10 nM
Cn1nc2c(Cl)c(N3CCOc4cc(C(=O)N5CCCCC5)cnc43)ccn2c1=O [Example 1-29]	< 10 nM
CCOCn1nc2cc(N3CCCc4cc(C(=O)N5CCC[C@@H](CF)C5)cnc43)ccn2c1=O [Example 1-122]	< 10 nM
CN1Cc2cc(N3CCOc4cc(C(=O)N5CCCCC5)cnc43)ccc2C1=O [Example 1-23]	< 10 nM
O=C(O)c1ccc(N2CCOc3cc(C(=O)N4CCCCC4)c(Cl)cc32)cc1 [Example 2-3]	< 10 nM
O=C1NCc2cc(N3CCCc4cc(C(=O)N5CCC(F)(F)CC5)cnc43)ccc21 [Example 14-5]	< 10 nM
O=C(c1cnc2c(c1)CCCN2c1ccccc1)N1CCCCC1 [Example 1-199]	10 to 100 nM
Cn1nc2cc(N3CCCc4cc(C(=O)N5CCC5)cnc43)ccn2c1=O [Example 8-122]	< 10 nM
Cn1nc2cc(N3CCOc4cc(C(=O)N5CCC[C@@H](CF)C5)cnc43)ccn2c1=O [Example 8-66]	< 10 nM
Cn1nc2cc(N3CCOc4cc(C(=O)N5CC6CCC6C5)cnc43)ccn2c1=O (centres unmarked) [Example 8-97]	< 10 nM
COCCOCCn1nc2cc(N3CCCc4cc(C(=O)N5CCC[C@H](CF)C5)cnc43)ccn2c1=O [Example 1-118]	< 10 nM
CC(C)(C(N)=O)c1ccc(N2CCOc3cc(C(=O)N4CCCCC4)cnc32)cc1 [Example 6-20]	> 100 nM
CN1Cc2cc(N3CCCc4cc(C(=O)N5CCC(F)(F)CC5)cnc43)cnc2C1=O [Example 1-84]	< 10 nM
O=C(O)c1ccc(N2CCOc3cc(C(=O)N4CCCCC4)ccc32)cn1 [Example 2-22]	< 10 nM
O=C(O)c1ccccc1N1CCOc2cc(C(=O)N3CCCCC3)ccc21 [Example 2-27]	> 100 nM
Cn1nc2cc(N3CCOc4cc(C(=O)N5CCC(C(F)(F)F)CC5)cnc43)ccn2c1=O [Example 8-101]	< 10 nM
CCOCCn1nc2cc(N3CCOc4cc(C(=O)N5CCC(F)(F)CC5)cnc43)ccn2c1=O [Example 1-48]	< 10 nM
CCn1nc2cc(N3CCCc4cc(C(=O)N5CC=CCC5)cnc43)ccn2c1=O [Example 8-154]	< 10 nM

Compound	IC50
Cn1nc2cc(N3CCNc4cc(C(=O)N5CCC(F)(F)CC5)cnc43)ccn2c1=O [Example 28-2]	< 10 nM
CCOCn1nc2cc(N3CCOc4cc(C(=O)N5CCC(F)(F)CC5)cnc43)ccn2c1=O [Example 1-44]	< 10 nM
CCN1Cc2cc(N3CCCc4cc(C(=O)N5CCN(C)CC5)cnc43)ccc2C1=O [Example 8-73]	< 10 nM
CN1Cc2cc(N3CCOc4cc([S+]([O-])C5CCCCC5)cnc43)ccc2C1=O (centres unmarked) [Example 7-9]	< 10 nM
Cn1nc2cc(N3CCCOc4cc(C(=O)N5CCCCCC5)cnc43)ccn2c1=O [Example 8-59]	< 10 nM
O=C(O)c1ccc(N2CCOc3c2ccc(C(=O)N2CCCCC2)c3Cl)cc1 [Example 2-4]	< 10 nM
C#CC1CCN(C(=O)c2cnc3c(c2)OCCN3c2ccn3c(=O)n(C)nc3c2)CC1 [Example 8-111]	< 10 nM
COCCn1nc2cc(N3CCOc4cc(C(=O)N5CCCCC5)cnc43)ccn2c1=O [Example 1-28]	< 10 nM
CN1CCN(C(=O)c2cnc3c(c2)OCCN3c2ccn3c(=O)n(C)nc3c2)CC1 [Example 8-226]	10 to 100 nM
O=C(c1cnc2c(c1)OCCN2c1ccc2c(=O)[nH]ccc2c1)N1CCCCC1 [Example 1-219]	< 10 nM
CN1Cc2cc(N3CCOc4cc(SC5CCCCC5)cnc43)ccc2C1=O [Example 1-136]	10 to 100 nM
COCn1nc2cc(N3CCOc4cc(C(=O)N5CCC(F)(F)CC5)cnc43)ccn2c1=O [Example 1-43]	< 10 nM
O=C(c1cnc2c(c1)CCCN2c1ccc2c(=O)[nH]cnc2c1)N1CCCCC1 [Example 1-155]	< 10 nM
CN1C(=O)C(C)(C)c2ccc(N3CCOc4cc(C(=O)N5CCCCC5)cnc43)cc21 [Example 1-248]	> 100 nM
CCN1Cc2cc(N3CCCc4cc(C(=O)N5CCC5)cnc43)ccc2C1=O [Example 8-68]	< 10 nM
COC(=O)c1ccc(N2CCOc3cc(C(=O)N4CCCCC4)cnc32)cc1 [Example 1-261]	< 10 nM
C[C@@H]1COc2cc(C(=O)N3CCCCC3)ccc2N(c2ccc(C(=O)O)cc2)C1 [Example 2-11]	< 10 nM
CNC(=O)Cn1nc2cc(N3CCOc4cc(C(=O)N5CCCCC5)cnc43)ccn2c1=O [Example 6-7]	< 10 nM
O=C(O)c1ccc(N2CCc3cc(C(=O)N4CCCCC4)ccc32)cc1 [Example 2-30]	< 10 nM

Compound	IC50
CN1Cc2ccc(N3CCOc4cc(C(=O)N5CCCCC5)cnc43)cc2C1=O [Example 1-225]	10 to 100 nM
Cn1nnc(-c2ccc(N3CCOc4cc(C(=O)N5CCCCC5)cnc43)cc2)n1 [Example 1-252]	< 10 nM
O=C(c1cnc2c(c1)CCCN2c1cc2c(cn1)C(=O)N(C1COC1)C2)N1CCC(F)(F)CC1 [Example 1-183]	10 to 100 nM
Cn1nnc(-c2ccc(N3CCCc4cc(C(=O)N5CCCCC5)cnc43)cc2)n1 [Example 1-201]	< 10 nM
O=C(O)c1ccc(N2CCOc3cc(C(=O)N4CCCCC4)cnc32)cc1 [Example 4-2]	< 10 nM
Cn1nc2cc(N3CCOc4cc(C(=O)N5CCCC6CC65)cnc43)ccn2c1=O (centres unmarked) [Example 8-54]	< 10 nM
CC(=O)N(C)C1CCCN(C(=O)c2cnc3c(c2)OCCN3c2ccn3c(=O)n(C)nc3c2)C1 (centres unmarked) [Example 34-1, N-Methyl-N-(1-(4-(2-methyl-3-oxo-2,3-dihydro-[1,2,4]triazolo[4,3-a]pyridin-7-yl)-3,4-dihydro-2H-pyrido[3,2-b][1,4]oxazin-7-carbonyl)piperidin-3-yl)acetamide]	> 100 nM
N#Cc1ccc(N2CCOc3cc(C(=O)N4CCC(F)(F)CC4)ccc32)cc1 [Example 1-17]	< 10 nM
COC(=O)c1ccc2nc(N3CCOc4cc(C(=O)N5CCCCC5)cnc43)cn2c1 [Example 11-5]	> 100 nM
Cn1nc2cc(N3CCOc4cc(C(=O)C5CCCCC5)cnc43)ccn2c1=O [Example 1-111]	< 10 nM
O=C(O)c1ccc(N2CCOc3cc(C(=O)N4CCCCC4)cnc32)cc1F [Example 20-1, 2-Fluoro-4-(7-(piperidine-1-carbonyl)-2,3-dihydro-4H-pyrido[3,2-b][1,4]oxazin-4-yl)benzoic Acid]	< 10 nM
O=C(c1cnc2c(c1)OCCN2c1ccn2c(=O)n(Cc3ccc(F)c(F)c3)nc2c1)N1CCC(F)(F)CC1 [Example 27-6]	< 10 nM
COc1ccc(N2CCOc3cc(C(=O)N4CCCCC4)cnc32)cc1 [Example 1-245]	10 to 100 nM
CCOCCn1nc2cc(N3CCOc4cc(C(=O)N5CCCCC5)cnc43)ccn2c1=O [Example 1-269]	< 10 nM
Cn1nc2cc(N3CCOc4cc(C(=O)N5CCCC6(CC6)C5)cnc43)ccn2c1=O [Example 8-42]	< 10 nM
Cn1nc2cc(N3CCOc4cc(C(=O)N5CCCC5(C)C)cnc43)ccn2c1=O [Example 8-173]	10 to 100 nM
C[C@H]1CCCN(C(=O)c2cnc3c(c2)OCCN3c2ccn3c(=O)n(C)nc3c2)C1 [Example 8-34]	< 10 nM
CNC(=O)c1ccc(N2CCOc3cc(C(=O)N4CCCCC4)cnc32)c(C)c1 [Example 6-13]	> 100 nM
